In PMC5982655, “Interaction of the New Monofunctional Anticancer Agent Phenanthriplatin With Transporters for Organic Cations” (Frontiers in Chemistry, 2018):
“Also recorded” adds a separate entry of the source.

Assays:
mOCT2 = target: T1, mOCT2 (Mus musculus, UniProt O70577); assay: Inhibition of ASP+ uptake in HEK 293 cells expressing mOCT2; format: cell-based, murine; details: HEK 293 mOCT2, 1 μM ASP+
T1 construct: expressed in transfected cells
T1 sequence (O70577 1-553): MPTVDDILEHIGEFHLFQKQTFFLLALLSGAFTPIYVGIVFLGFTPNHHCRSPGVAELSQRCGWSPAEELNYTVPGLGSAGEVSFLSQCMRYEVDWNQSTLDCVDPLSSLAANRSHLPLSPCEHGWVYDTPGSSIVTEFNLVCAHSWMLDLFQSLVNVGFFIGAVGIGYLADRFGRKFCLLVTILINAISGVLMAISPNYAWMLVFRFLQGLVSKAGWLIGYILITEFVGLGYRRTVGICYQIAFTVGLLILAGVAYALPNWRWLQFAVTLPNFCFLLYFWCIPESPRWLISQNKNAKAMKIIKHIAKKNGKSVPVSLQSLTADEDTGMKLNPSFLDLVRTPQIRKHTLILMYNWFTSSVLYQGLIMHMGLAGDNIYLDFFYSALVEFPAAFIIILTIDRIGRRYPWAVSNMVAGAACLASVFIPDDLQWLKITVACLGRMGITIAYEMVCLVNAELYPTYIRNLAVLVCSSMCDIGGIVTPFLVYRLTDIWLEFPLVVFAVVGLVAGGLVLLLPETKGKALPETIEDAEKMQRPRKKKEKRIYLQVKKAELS
Protocol: (§1) The interaction of phenanthriplatin with transporters for organic cations (OCT1-3, MATE1, and MATE2K) was investigated by measuring its effects on the uptake of the fluorescent organic cation 4-(4-dimethylamino)styryl-N-methylpyridinium (ASP^+). Microfluorometric measurements of ASP^+ uptake were performed with a fluorescence plate reader (Infinity 200, Tecan, Crailsheim, Germany; excitation at 465 nm, emission at 590 nm) as described previously for cultured HEK 293 cells (Wilde et al., [2009]). Before measurements, the culture medium in the wells of the 96 well microtiter plate containing HEK 293 cells was replaced by a HCO3- -free Ringer-like solution containing (in mM) NaCl 145, K2HPO4 1.6, KH2PO4 0.4, D-glucose 5, MgCl2 1, calcium gluconate 1.3, and pH adjusted to 7.4. Fluorescence was measured dynamically at 37°C in each well before and after ASP^+ addition to HCO3- -free Ringer-like solution, alone or together with increasing phenanthriplatin concentrations, and plotted versus time. ASP^+ (final concentration 1 or 10 μM for experiments with OCTs or MATEs, respectively) was added after the third sampling interval. Emission from the complete area of the well bottom was analyzed four times and averaged for each well. […] Background fluorescence was measured for each plate in wells with identical solutions containing no cells and subtracted from each well containing cells. […]

hOCT3 = target: T2, hOCT3 (Homo sapiens, UniProt O75751); assay: Inhibition of ASP+ uptake in HEK 293 cells expressing hOCT3; format: cell-based; details: HEK 293 hOCT3, 1 μM ASP+
T2 construct: expressed in transfected cells; gift of H. Koepsell
T2 sequence (O75751 1-556): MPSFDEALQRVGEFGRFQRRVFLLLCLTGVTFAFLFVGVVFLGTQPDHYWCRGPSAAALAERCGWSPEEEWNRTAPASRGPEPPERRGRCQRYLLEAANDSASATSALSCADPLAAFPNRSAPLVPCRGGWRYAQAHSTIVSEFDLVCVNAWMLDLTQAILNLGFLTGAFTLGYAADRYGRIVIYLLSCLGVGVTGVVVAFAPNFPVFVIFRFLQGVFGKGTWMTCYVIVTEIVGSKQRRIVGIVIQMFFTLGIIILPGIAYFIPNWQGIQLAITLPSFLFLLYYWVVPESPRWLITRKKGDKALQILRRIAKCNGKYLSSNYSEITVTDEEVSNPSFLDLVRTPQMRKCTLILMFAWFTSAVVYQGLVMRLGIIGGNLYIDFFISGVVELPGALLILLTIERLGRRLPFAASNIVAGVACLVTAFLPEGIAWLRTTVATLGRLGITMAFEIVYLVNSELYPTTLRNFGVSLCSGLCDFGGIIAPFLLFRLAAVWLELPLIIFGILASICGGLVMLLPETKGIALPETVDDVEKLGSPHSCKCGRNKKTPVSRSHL
Protocol: as §1

HEK 293 hOCT2 cells = assay: MTT cell viability, HEK 293 hOCT2 cells; format: cell-based, human; details: 10 min
Protocol: (§2) A modified 3-(4,5-dimethylthiazol-2-yl)-2,5-diphenyltetrazolium bromide (MTT) assay (Mosmann, [1983]) was used to test the chemosensitivity of cells to phenanthriplatin and, in some experiments, to cisplatin by determining the glycolysis rate via the reduction of the yellow tetrazolium salt MTT to a purple formazan dye, as previously described (Wehe et al., [2014]). Briefly, after growing for 24 h in the incubator, cells expressing or not hOCT2, hMATE1, hMATE2 or Ctr1 were treated for 10 min with platinum derivatives. Control cells were incubated with drug-free complete cell culture medium. Afterwards, the medium was carefully removed and replaced by 200 μL of fresh complete cell culture medium. After incubation for another 24 h, 10 μL of MTT solution containing 5 mg/mL of the dye were added to each well, and the cells were again incubated for 3 h. The medium was then removed and 100 μL of lysis buffer containing 10% (w/v) sodium dodecyl sulfate and 40% (v/v) dimethylformamide was added to each well. The plates were shaken for 10 min to destroy the cell structure and dissolve the blue formazan dye (Furchert et al., [2007]; Wehe et al., [2014]). Finally, the absorbance was measured at 590 nm using an automated microtiter plate reader (Infinite M200; Tecan, Männedorf, Switzerland). The percentage of viable cells in the untreated controls was compared to that for the various treatments. Experiments carried out with DAOY and UW228 cells followed a similar protocol except that these cells were incubated for 24 h with phenanthriplatin.

HEK293 hMATE1 cells = assay: MTT cell viability, HEK293 hMATE1 cells; format: cell-based, human; details: HEK293 hMATE1, 100 μM phenanthriplatin
Protocol: as §2, with “Experiments carried out with DAOY and UW228 cells followed a similar protocol except that these cells were incubated for 24 h with phenanthriplatin.” left out

Ctr1^−/− MEFs = assay: MTT cell viability, Ctr1-/- MEFs; format: cell-based, mouse
Protocol: as §2

N.N.[Cl][Pt+].c1ccc2c(c1)cnc1ccccc12 [phenanthriplatin, cis-[Pt(NH3)2Cl(phenanthridine)]^+]
IC50 (mOCT2): 2 µM
logIC50 (logEC50) ± SEM for inhibition of ASP+ uptake (mOCT2): −5.64 ± 0.05
IC50 (hOCT3): 21 µM
logIC50 (logEC50) ± SEM for inhibition of ASP+ uptake (hOCT3): −4.67 ± 0.07
Cell viability (MTT) (HEK 293 hOCT2 cells; HEK 293 hOCT2, 10 μM phenanthriplatin + 100 μM cimetidine): reduced upon co-incubation of phenanthriplatin with cimetidine
Cell viability (MTT) (HEK 293 hOCT2 cells; HEK 293 hOCT2, 10 μM phenanthriplatin): significant phenanthriplatin toxicity
Cell viability (MTT) (HEK293 hMATE1 cells): induces significant cell toxicity
Cell viability (MTT) (Ctr1^−/− MEFs; 1 mM, 10 min): toxic; also recorded: still present in Ctr1^−/− MEFs even though at lower level than in Ctr1^+/+ MEFs
Cell viability (MTT) (Ctr1^−/− MEFs; lower concentrations (<1 mM)): did not change the cell viability
